Test results: US10077277B2, “Bicyclic heteroarylaminoalkyl phenyl derivatives as PI3K inhibitors” (Incyte Corporation, priority 2014, dated 2018)
pIC50: −log10 of the molar value. Structures can show the parent of a compound that is named as a salt. Where two headings read alike, the source gives them in different places.

Experiments:
[1] = molecular target: PI3Kδ (p110δ/p85α) (Homo sapiens (Human), UniProt O00329); assay: PI3Kδ scintillation proximity assay (Example A3); assay type: biochemical; details: Assay A3, 20 μM ATP
PI3Kδ (p110δ/p85α), sequence (O00329 whole entry): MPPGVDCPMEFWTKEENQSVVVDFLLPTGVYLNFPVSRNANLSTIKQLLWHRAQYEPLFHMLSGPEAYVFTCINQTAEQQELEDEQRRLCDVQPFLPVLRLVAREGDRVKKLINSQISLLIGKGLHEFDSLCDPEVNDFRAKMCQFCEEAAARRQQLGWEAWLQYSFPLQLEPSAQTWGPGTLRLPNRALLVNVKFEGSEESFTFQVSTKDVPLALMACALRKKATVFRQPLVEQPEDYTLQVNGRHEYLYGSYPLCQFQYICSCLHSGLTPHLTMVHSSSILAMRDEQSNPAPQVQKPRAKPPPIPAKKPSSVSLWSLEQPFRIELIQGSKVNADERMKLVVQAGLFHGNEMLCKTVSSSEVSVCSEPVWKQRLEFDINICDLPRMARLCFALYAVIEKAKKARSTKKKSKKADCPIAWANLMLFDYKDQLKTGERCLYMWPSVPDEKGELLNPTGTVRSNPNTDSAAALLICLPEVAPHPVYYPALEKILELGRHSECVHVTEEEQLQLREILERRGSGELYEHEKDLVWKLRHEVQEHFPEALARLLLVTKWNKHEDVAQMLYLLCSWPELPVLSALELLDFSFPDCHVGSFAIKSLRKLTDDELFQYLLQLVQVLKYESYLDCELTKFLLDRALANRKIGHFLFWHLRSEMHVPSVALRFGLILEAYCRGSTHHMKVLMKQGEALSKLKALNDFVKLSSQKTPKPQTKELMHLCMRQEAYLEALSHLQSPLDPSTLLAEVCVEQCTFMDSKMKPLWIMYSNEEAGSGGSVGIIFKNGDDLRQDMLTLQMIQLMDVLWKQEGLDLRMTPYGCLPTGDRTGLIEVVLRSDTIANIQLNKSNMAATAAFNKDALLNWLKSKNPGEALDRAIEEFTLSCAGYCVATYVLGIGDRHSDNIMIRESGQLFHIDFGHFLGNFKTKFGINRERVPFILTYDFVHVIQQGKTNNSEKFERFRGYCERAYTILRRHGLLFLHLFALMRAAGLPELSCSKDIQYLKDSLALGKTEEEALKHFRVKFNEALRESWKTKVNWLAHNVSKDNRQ
PI3Kδ (p110δ/p85α), sequence (P27986 whole entry partner): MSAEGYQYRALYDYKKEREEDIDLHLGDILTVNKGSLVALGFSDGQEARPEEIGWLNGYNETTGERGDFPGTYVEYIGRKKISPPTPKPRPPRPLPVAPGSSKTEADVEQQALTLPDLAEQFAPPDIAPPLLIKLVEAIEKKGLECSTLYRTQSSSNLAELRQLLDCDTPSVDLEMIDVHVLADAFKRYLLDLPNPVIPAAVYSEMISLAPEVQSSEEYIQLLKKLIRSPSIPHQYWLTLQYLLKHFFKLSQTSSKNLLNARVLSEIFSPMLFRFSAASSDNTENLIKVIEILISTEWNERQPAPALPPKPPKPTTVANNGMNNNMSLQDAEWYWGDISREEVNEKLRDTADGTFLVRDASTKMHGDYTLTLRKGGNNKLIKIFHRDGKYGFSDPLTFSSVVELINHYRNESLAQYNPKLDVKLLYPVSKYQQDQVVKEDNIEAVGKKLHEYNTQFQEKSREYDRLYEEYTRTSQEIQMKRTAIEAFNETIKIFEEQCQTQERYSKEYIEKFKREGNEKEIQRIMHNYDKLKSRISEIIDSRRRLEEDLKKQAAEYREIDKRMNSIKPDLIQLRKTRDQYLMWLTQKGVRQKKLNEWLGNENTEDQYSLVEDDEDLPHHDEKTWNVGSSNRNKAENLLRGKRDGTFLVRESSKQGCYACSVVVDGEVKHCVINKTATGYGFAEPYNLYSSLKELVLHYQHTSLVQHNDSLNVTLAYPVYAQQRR
Excerpt: Example A3: PI3Kδ Scintillation Proximity Assay
[γ-^33P]ATP (10 mCi/mL) was purchased from PerkinElmer (Waltham, Mass.). Lipid kinase substrate, D-myo-Phosphatidylinositol 4,5-bisphosphate (PtdIns(4,5)P2)D (+)-sn-1,2-di-O-octanoylglyceryl, 3-O-phospho linked (PIP2), CAS 204858-53-7, was purchased from Echelon Biosciences (Salt Lake City, Utah). PI3Kδ (p110δ/p85α) was purchased from Millipore (Bedford, Mass.). ATP, MgCl2, DTT, EDTA, MOPS and CHAPS were purchased from SigmaAldrich (St. Louis, Mo.). Wheat Germ Agglutinin (WGA) YSi SPA Scintillation Beads was purchased from GE healthcare life sciences (Piscataway, N.J.).
The kinase reaction was conducted in polystyrene 384-well matrix white plate from Thermo Fisher Scientific in a final volume of 25 μL. Inhibitors were first diluted serially in DMSO and added to the plate wells before the addition of other reaction components. The final concentration of DMSO in the assay was 0.5%. The PI3K assays were carried out at room temperature in 20 mM MOPS, pH 6.7, 10 mM MgCl2, 5 mM DTT and CHAPS 0.03%. Reactions were initiated by the addition of ATP, the final reaction mixture consisted of 20 μM PIP2, 20 μM ATP, 0.2 μCi [γ-^33P] ATP, 4 nM PI3Kδ. Reactions were incubated for 210 min and terminated by the addition of 40 μL SPA beads suspended in quench buffer: 150 mM potassium phosphate pH 8.0, 20% glycerol. 25 mM EDTA, 400 μM ATP. The final concentration of SPA beads was 1.0 mg/mL. After the plate sealing, plates were shaken overnight at room temperature and centrifuged at 1800 rpm for 10 minutes, the radioactivity of the product was determined by scintillation counting on Topcount (PerkinElmer). IC50 determination was performed by fitting the curve of percent control activity versus the log of the inhibitor concentration using the GraphPad Prism 3.0 software. IC50 data for the Examples is presented in Table 2 as determined by Assay A3.

[2] = test system: SUDHL-6 cells; assay: SUDHL-6 cell proliferation assay (Example B3); assay type: cell-based; details: 3 days, Cell Titer-GLO ATP quantitation, read-out: SUDHL6 IC50
Description: Example B3: SUDHL-6 Cell Proliferation Assay
SUDHL-6 cell line (diffuse large B cell lymphoma) was purchased from ATCC (Manassas, Va.) and maintained in the culture medium recommended (RPMI and 10% FBS). To measure the anti-proliferation activity of the compounds through ATP quantitation, the SUDHL-6 cells was plated with the culture medium (5000 cells/well/per 200 μl) into 96-well polystyrene clear black tissue culture plate (Greiner-bio-one through VWR, NJ) in the presence or absence of a concentration range of test compounds. After 3 days, Cell Titer-GLO Luminescent (Promega, Madison, Wis.) cell culture agent was added to each well for 10 minutes at room temperature to stabilize the luminescent signal. This determines the number of viable cells in culture based on quantitation of the ATP present, which signals the presence of metabolically active cells. Luminescence was measured with the TopCount 384 (Packard Bioscience through Perkin Elmer, Boston, Mass.). IC50 data for the Examples is presented in Table 3 determined by the assay of Example B3.

[3] = molecular target: human JAK1 (Homo sapiens, UniProt P23458); assay: In vitro JAK kinase assay (Example J), JAK1; assay type: biochemical; details: Assay J at 1 mM ATP
[4] = molecular target: human JAK2 (Homo sapiens (Human), UniProt O60674); assay: In vitro JAK kinase assay (Example J), JAK2; assay type: biochemical; details: ratio of IC50s, Assay J at 1 mM ATP
human JAK2, sequence (O60674 828-1132): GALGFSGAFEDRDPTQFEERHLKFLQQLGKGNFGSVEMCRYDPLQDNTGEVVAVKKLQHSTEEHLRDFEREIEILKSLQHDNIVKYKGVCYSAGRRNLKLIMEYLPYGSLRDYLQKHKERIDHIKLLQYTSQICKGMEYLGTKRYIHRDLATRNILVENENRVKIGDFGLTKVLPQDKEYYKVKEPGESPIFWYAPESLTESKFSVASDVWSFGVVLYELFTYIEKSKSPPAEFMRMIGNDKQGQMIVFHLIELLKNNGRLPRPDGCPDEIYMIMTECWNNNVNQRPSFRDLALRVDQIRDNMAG

SMILES	pIC50 [1]	pIC50 [3]	JAK2/JAK1 [4]	further results
CCOc1c([C@@H](C)Nc2ncnc3cccnc23)cc(Cl)c(F)c1[C@@H]1CNC(=O)C1 [Example 2A, 4-{3-chloro-6-ethoxy-2-fluoro-5-[1-(pyrido[3,2-d]pyrimidin-4-ylamino)ethyl]phenyl}pyrrolidin-2-one]	≥ 7.00			pIC50 ([2]; Homo sapiens, SU-DHL-6, 72 h): ≥ 6.30
CCOc1c(C(C)Nc2ncnc3scnc23)cc(Cl)c(F)c1C1CNC(=O)C1 (single isomer, unassigned) [Example 1D, 4-{3-chloro-6-ethoxy-2-fluoro-5-[1-([1,3]thiazolo[5,4-d]pyrimidin-7-ylamino)ethyl]phenyl}pyrrolidin-2-one]	6.40 to 7.00			
CCOc1c(C(C)Nc2ncnc3scnc23)cc(Cl)c(F)c1C1CNC(=O)C1 (single isomer, unassigned) [Example 1B, 4-{3-chloro-6-ethoxy-2-fluoro-5-[1-([1,3]thiazolo[5,4-d]pyrimidin-7-ylamino)ethyl]phenyl}pyrrolidin-2-one]	6.40 to 7.00			
CCOc1c(C(C)Nc2ncnc3scnc23)cc(Cl)c(F)c1C1CNC(=O)C1 (single isomer, unassigned) [Example 1C, 4-{3-chloro-6-ethoxy-2-fluoro-5-[1-([1,3]thiazolo[5,4-d]pyrimidin-7-ylamino)ethyl]phenyl}pyrrolidin-2-one]	≥ 7.00			pIC50 [2]: ≥ 6.30
CCOc1c(C(C)Nc2ncnc3scnc23)cc(Cl)c(F)c1C1CNC(=O)C1 (single isomer, unassigned) [Example 1A, 4-{3-chloro-6-ethoxy-2-fluoro-5-[1-([1,3]thiazolo[5,4-d]pyrimidin-7-ylamino)ethyl]phenyl}pyrrolidin-2-one]	≥ 7.00			pIC50 ([2]; Homo sapiens, SU-DHL-6, 72 h): ≥ 6.30
CCNC(=O)c1c(C)c(Cl)cc(C(C)Nc2ncnc3cccnc23)c1-c1cc(F)cc(F)c1 (stereo not drawn) [Example 4, 4-Chloro-N-ethyl-3′,5′-difluoro-3-methyl-6-[1-(pyrido[3,2-d]pyrimidin-4-ylamino)ethyl]biphenyl-2-carboxamide]	≥ 7.00			pIC50 ([2]; Homo sapiens, SU-DHL-6, 72 h): ≥ 6.30
CCOc1c(C(C)Nc2ncnc3scnc23)cc(Cl)c(F)c1C1CNC(=O)C1 (stereo not drawn) [Example 1, 4-{3-Chloro-6-ethoxy-2-fluoro-5-[1-([1,3]thiazolo[5,4-d]pyrimidin-7-ylamino)ethyl]phenyl}pyrrolidin-2-one trifluoroacetate]	≥ 7.00		>10	
COc1c([C@H](C)Nc2ncnc3cccnc23)cc(Cl)c(C)c1-c1ccc(C(=O)N(C)C)nc1 [Example 3, 5-{3-Chloro-6-methoxy-2-methyl-5-[(1S)-1-(pyrido[3,2-d]pyrimidin-4-ylamino)ethyl]phenyl}-N,N-dimethylpyridine-2-carboxamide bis(trifluoroacetate)]	≥ 7.00			pIC50 ([2]; Homo sapiens, SU-DHL-6, 72 h): ≥ 6.30

Further lines, with some results ahead:

pIC50 [1]	pIC50 [3]	JAK2/JAK1 [4]	SMILES	further results
≥ 7.00			CCOc1c(C(C)Nc2ncnc3cccnc23)cc(Cl)c(F)c1C1CNC(=O)C1 (stereo not drawn) [Example 2, 4-{3-Chloro-6-ethoxy-2-fluoro-5-[1-(pyrido[3,2-d]pyrimidin-4-ylamino)ethyl]phenyl}pyrrolidin-2-one]	
6.40 to 7.00			CCOc1c([C@@H](C)Nc2ncnc3cccnc23)cc(Cl)c(F)c1[C@@H]1CNC(=O)C1 (single isomer, unassigned) [Example 2B, 4-{3-chloro-6-ethoxy-2-fluoro-5-[1-(pyrido[3,2-d]pyrimidin-4-ylamino)ethyl]phenyl}pyrrolidin-2-one]	
	> 8.00	>10	CC(C)(O)c1cc(O[C@H]2CC[C@@H](N3CC(CC#N)(n4cc(-c5ncnc6[nH]ccc56)cn4)C3)CC2)nc(C(F)(F)F)c1 [Example 20, {1-(cis-4-{[4-(1-hydroxy-1-methylethyl)-6-(trifluoromethyl)pyridin-2-yl]oxy}cyclohexyl)-3-[4-(7H-pyrrolo[2,3-d]pyrimidin-4-yl)-1H-pyrazol-1-yl]azetidin-3-yl}acetonitrile]	
	> 8.00	>10	N#CCC1(n2cc(-c3ncnc4[nH]ccc34)cn2)CN([C@H]2CC[C@@H](Oc3cc(CN4CC[C@@H](O)C4)cc(C(F)(F)F)n3)CC2)C1 [Example 21]	
	> 8.00	>10	C[C@@H](O)CNCc1cc(OC2CCN([C@H]3C[C@](CC#N)(n4cc(-c5ncnc6[nH]ccc56)cn4)C3)CC2)nc(C(F)(F)F)c1 [Example 24]	
	> 8.00	>10	CCNCc1cc(O[C@H]2CC[C@@H](N3CC(CC#N)(n4cc(-c5ncnc6[nH]ccc56)cn4)C3)CC2)nc(C(F)(F)F)c1 [Example 19, {1-(cis-4-{[4-[(ethylamino)methyl]-6-(trifluoromethyl)pyridin-2-yl]oxy}cyclohexyl)-3-[4-(7H-pyrrolo[2,3-d]pyrimidin-4-yl)-1H-pyrazol-1-yl]azetidin-3-yl}acetonitrile]	
6.40 to 7.00			CCOc1c([C@@H](C)Nc2ncnc3cccnc23)cc(Cl)c(F)c1[C@@H]1CNC(=O)C1 (single isomer, unassigned) [Example 2D, 4-{3-chloro-6-ethoxy-2-fluoro-5-[1-(pyrido[3,2-d]pyrimidin-4-ylamino)ethyl]phenyl}pyrrolidin-2-one]	
	> 8.00	>10	N#CC[C@]1(n2cc(-c3ncnc4[nH]ccc34)cn2)C[C@H](N2CCC(Oc3cc(CN4CCC[C@H]4CO)cc(C(F)(F)F)n3)CC2)C1 [Example 12]	
